Experimental data reported in patent publication US8809343B2, “Pyrimidine derivative, preparation method and use thereof” (Fudan University, priority 2008, dated 2014).
Read-outs that look alike come from different tables or passages of the source.

Legend:
[1] = system: HIV-1 IIIB strain; experiment: Anti-HIV activity: protection of HIV-infected MT-4 cells from virus-induced cell lesions; format: cell-based; details: for EC50: Human immunodeficiency virus 1, IIIB
Description: (§1) Anti-virus activity of cells in vitro was determined by Rega Institute for Medical of […] Katholleke University, consisting mainly: inhibitory activity towards HIV-infected MT-4 cells and cell toxicity. The method is described below: exert the compound on the HIV-infected ME-4 cells, and determine the protection of the drug on the cell lesions induced by HIV at varied HIV-infection intervals, calculate the half effective concentration IC50, the required concentration that protect 50% of cells from cell lesions induced by HIV. Toxicity determination is carried out in parallel with anti-HIV activity experiments, also in the cultured MT-4 cells, determine the CC50, the concentration that leads 50% of uninfected cells to cell lesions, and calculate the selectivity index SI=CC50/IC50 with the MTT method.
(§2) Anti-HIV activity of various compounds is monitored by the inhibitory efficiency of drugs on the cell lesions induced by HIV. Carry out cell culture with MT-4 cells. The adopted virus strains are HIV-1 IIIB strain and drug-resistant viral strain of […].
(§3) The detailed operation is as follows: the compound is dissolved with DMSO or water and diluted with phosphate buffer saline, 3×10^5 MT-4 cells are cultured with 100 μL various concentrations of compounds for 1 h, then 100 μL suitable virus dilution is added to the compound, and the cells are cultured at 37° C. for 1 h. After being washed for 3 times, the cells are suspended again in the culture media containing or not compounds individually. Subsequently, the cells are transferred to the atmosphere containing 5% CO2 and cultured for 7 days at 37° C., and culture media containing or not compounds are used to replace or supplement the culture solution on the third day after infection. Kinds of culture conditions should be duplicated. The cell lesions caused by virus are monitored with reverse light microscopy everyday. Typically, the virus dilution applied in the present experiments generally cause cell lesion on the fifth day after infection. […] It should be emphasized that, when the compound is poorly water-soluble and can only be dissolved in DMSO, the ratio of DMSO to water is generally below 10% (the final concentration of DMSO in MT-4 cell culture media is smaller than 2%). Because DMSO can influence the anti-virus activity of the tested compounds, blank tests on the solution containing the same concentration of DMSO should be conducted in parallel. Additionally, the final concentration of DMSO is far below the concentration required to influence the replication of HIV-1 in T cells.

[2] = Cell toxicity in uninfected MT-4 cells (MTT method); format: cell-based; details: human
Description: as §1, §3

[3] = system: drug-resistant viral strain of L103N+Y181C; experiment: Anti-HIV activity in MT-4 cells, drug-resistant viral strain; format: cell-based, HIV-1
Description: as §1, §2, §3

[4] = target: T1, HIV-1 RT (Human immunodeficiency virus type 1 group M subtype B, UniProt P03366); experiment: In vitro anti HIV-1 reverse transcriptase screening (Biotin-dUTP, OD450); format: biochemical
T1 construct: Screening for in vitro activity of anti HIV-1 reverse transcriptase (HIV-1 RT); made in house

[5] = HIV-1 IIIB, MT-4 cells, Table 1
[6] = MT4, read-out: EC50 HIV-1(IIIB)
[7] = Human immunodeficiency virus 1, MT4, read-out: EC50 103N + 181C, MT-4 cells, Table 1
[8] = Human immunodeficiency virus 1, MT4, read-out: EC50 103N + 181C, MT-4 cells, Table 2

| SMILES | SI (Selectivity index, the ratio of CC50/IC50) [1, 5] | EC50 [3, 7] [nM] | EC50 ([1]; MT4, read-out: EC50 WT(IIIB)) [nM] | SI (Selectivity index, the ratio of CC50/IC50) ([1]; WT(IIIB), Table 2) | CC50 at 7 days ([2]; uninfected MT-4 cells, Table 2) [nM] | IC50 [4] [nM] | EC50 [3, 8] [nM] | also measured |
| --- | --- | --- | --- | --- | --- | --- | --- | --- |
| CNc1cc(Oc2cccc3cccnc23)nc(Nc2ccc(C#N)cc2)n1 [Compound 3] | 6089 | ≥ 54200 | – | – | – | – | – | EC50 [1, 6]: 8.9 nM; CC50 at 7 days ([2]; uninfected MT-4 cells, Table 1): 54200 nM |
| COc1cc(Oc2cccc3cccnc23)nc(Nc2ccc(C#N)cc2)n1 [Compound 4] | 3299 | ≥ 42200 | – | – | – | – | – | EC50 [1, 6]: 12.8 nM; CC50 at 7 days ([2]; uninfected MT-4 cells, Table 1): 42200 nM |
| COc1c(Oc2ccnc(Nc3ccc(C#N)cc3)n2)ccc2cc(C#N)ccc12 [Compound 20] | – | – | 1.2 | ≧134032 | 161000 | 2290 | 380 | – |
| COc1cc2cc(C#N)ccc2cc1Oc1ccnc(Nc2ccc(C#N)cc2)n1 [Compound 21] | – | – | 0.9 | >158228 | 142000 | 1320 | – | – |
| COc1cc2cc(C#N)ccc2c(OC)c1Oc1ccnc(Nc2ccc(C#N)cc2)n1 [Compound 22] | – | – | 0.8 | ≧25000 | 20000 | 94.5 | 160 | – |
| N#Cc1ccc(Nc2nccc(Oc3ccc4cc(C#N)ccc4c3Cl)n2)cc1 [Compound 23] | – | – | 1.8 | 47964 | 86300 | – | 700 | – |
| COc1cc2cc(C#N)ccc2c(Cl)c1Oc1ccnc(Nc2ccc(C#N)cc2)n1 [Compound 24] | – | – | 0.6 | ≧25701 | 15400 | – | 150 | – |
| O=C1Nc2ccc(Cl)cc2[C@@](C#CC2CC2)(C(F)(F)F)O1 [EFV, efavirenz, reference compound] | >1434 | 560000 | – | >1434 | – | – | 560 | SI (Selectivity index, the ratio of CC50/IC50) ([1]; HIV-1 IIIB, MT-4 cells, Table 3): >2174; EC50 ([1]; MT4, MT-4 cells, Table 1, read-out: EC50 HIV-1(IIIB)): 3 nM; EC50 ([1]; MT4, MT-4 cells, Table 2, read-out: EC50 WT(IIIB)): 3 nM; CC50 at 7 days ([2]; Table 1): 4300 nM; CC50 at 7 days ([2]; Table 3): > 6340 nM |
